Assay results as given in ChEMBL document CHEMBL1201862, “PubChem BioAssay data set” (2004).
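Cultured in 96-well plates, cells were exposed to test compound for 48 hours across five concentrations. GI50 marks 50% less growth.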 The source made the active and inactive calls. Rule as the data show it: active = GI50 up to about 1.1 µM and inactive = higher.

How the values were obtained:
Assay in all cases: NCI anticancer screen, dose series, 48 h
786-0 = system: 786-0
A498 = system: A498
A549 = system: A549
ACHN = system: ACHN
CAKI-1 = system: CAKI-1
CCRF-CEM = system: CCRF-CEM
COLO 205 = system: COLO 205
DLD-1 = system: DLD-1
DMS-114 = system: DMS-114
DMS-273 = system: DMS-273
EKVX = system: EKVX
HCC 2998 = system: HCC 2998
HCT-116 = system: HCT-116
HCT-15 = system: HCT-15
HL-60 = system: HL-60
HOP-18 = system: HOP-18
HOP-62 = system: HOP-62
HOP-92 = system: HOP-92
HT-29 = system: HT-29
IGROV-1 = system: IGROV-1
K562 = system: K562
KM-20L2 = system: KM-20L2
KM12 = system: KM12
LOX IMVI = system: LOX IMVI
LXFL 529 = system: LXFL 529
M14 = system: M14
MOLT-4 = system: MOLT-4
Malme-3M = system: Malme-3M
NCI-H226 = system: NCI-H226
NCI-H23 = system: NCI-H23
NCI-H460 = system: NCI-H460
NCI-H522 = system: NCI-H522
OVCAR-3 = system: OVCAR-3
OVCAR-5 = system: OVCAR-5
OVCAR-8 = system: OVCAR-8
RPMI-8226 = system: RPMI-8226
RXF 393 = system: RXF 393
SF-268 = system: SF-268
SF-295 = system: SF-295
SF-539 = system: SF-539
SK-MEL-28 = system: SK-MEL-28
SK-MEL-2 = system: SK-MEL-2
SK-MEL-5 = system: SK-MEL-5
SK-OV-3 = system: SK-OV-3
SN12C = system: SN12C
SNB-19 = system: SNB-19
SNB-75 = system: SNB-75
SNB-78 = system: SNB-78
SR = system: SR
SW-620 = system: SW-620
TK-10 = system: TK-10
U-251 = system: U-251
UACC-257 = system: UACC-257
UACC-62 = system: UACC-62
UO-31 = system: UO-31
XF498 = system: XF498
M19-MEL = system: M19-MEL
OVCAR-4 = system: OVCAR-4

c1ccc(COc2ccc3[nH]c4c5c6ccccc6nc-5c[nH]c4c3c2)cc1
GI50 (786-0): 6.46 µM (inactive)
GI50 (A498): 21.6 µM (inactive)
GI50 (A549): 17.8 µM (inactive)
GI50 (ACHN): 17.5 µM (inactive)
GI50 (CAKI-1): 22 µM (inactive)
GI50 (CCRF-CEM): 11.4 µM (inactive)
GI50 (COLO 205): 19 µM (inactive)
GI50 (DLD-1): 12.4 µM (inactive)
GI50 (DMS-114): 16.6 µM (inactive)
GI50 (DMS-273): 16.6 µM (inactive)
GI50 (EKVX): 17.7 µM (inactive)
GI50 (HCC 2998): 10.5 µM (inactive)
GI50 (HCT-116): 12.2 µM (inactive)
GI50 (HCT-15): 4.3 µM
GI50 (HL-60): 2.19 µM (inactive)
GI50 (HOP-18): 13.2 µM (inactive)
GI50 (HOP-62): 15.8 µM (inactive)
GI50 (HOP-92): 15.8 µM (inactive)
GI50 (HT-29): 5.47 µM (inactive)
GI50 (IGROV-1): 13.8 µM (inactive)
GI50 (K562): 2.48 µM (inactive)
GI50 (KM-20L2): 8.02 µM (inactive)
GI50 (KM12): 14.7 µM (inactive)
GI50 (LOX IMVI): 18.7 µM (inactive)
GI50 (LXFL 529): 16 µM (inactive)
GI50 (M14): 13.7 µM (inactive)
GI50 (MOLT-4): 7.62 µM (inactive)
GI50 (Malme-3M): 13.5 µM (inactive)
GI50 (NCI-H226): 15.4 µM (inactive)
GI50 (NCI-H23): 18.3 µM (inactive)
GI50 (NCI-H460): 18.6 µM (inactive)
GI50 (NCI-H522): 16.7 µM (inactive)
GI50 (OVCAR-3): 15.9 µM (inactive)
GI50 (OVCAR-5): 19.4 µM (inactive)
GI50 (OVCAR-8): 17.5 µM (inactive)
GI50 (RPMI-8226): 2.97 µM (inactive)
GI50 (RXF 393): 11.2 µM (inactive)
GI50 (SF-268): 17 µM (inactive)
GI50 (SF-295): 14.8 µM (inactive)
GI50 (SF-539): 15.7 µM (inactive)
GI50 (SK-MEL-28): 17.2 µM (inactive)
GI50 (SK-MEL-2): 16.9 µM (inactive)
GI50 (SK-MEL-5): 15.7 µM (inactive)
GI50 (SK-OV-3): 18.4 µM (inactive)
GI50 (SN12C): 15.4 µM (inactive)
GI50 (SNB-19): 17.7 µM (inactive)
GI50 (SNB-75): 12.7 µM (inactive)
GI50 (SNB-78): 20.9 µM (inactive)
GI50 (SR): 8.95 µM (inactive)
GI50 (SW-620): 17.3 µM (inactive)
GI50 (TK-10): 21.9 µM (inactive)
GI50 (U-251): 11.7 µM (inactive)
GI50 (UACC-257): 18 µM (inactive)
GI50 (UACC-62): 19.6 µM (inactive)
GI50 (UO-31): 18.7 µM (inactive)
GI50 (XF498): 13.7 µM (inactive)

CC(=O)N1CCC2(C=Nc3ccccc32)CC1
GI50 (786-0): > 100 µM (inactive)
GI50 (A498): > 100 µM (inactive)
GI50 (A549): > 100 µM (inactive)
GI50 (ACHN): > 100 µM (inactive)
GI50 (CAKI-1): > 100 µM (inactive)
GI50 (CCRF-CEM): > 100 µM (inactive)
GI50 (COLO 205): > 100 µM (inactive)
GI50 (DLD-1): > 100 µM (inactive)
GI50 (DMS-114): > 100 µM (inactive)
GI50 (DMS-273): > 100 µM (inactive)
GI50 (EKVX): > 100 µM (inactive)
GI50 (HCC 2998): > 100 µM (inactive)
GI50 (HCT-116): > 100 µM (inactive)
GI50 (HCT-15): > 100 µM
GI50 (HL-60): > 100 µM (inactive)
GI50 (HOP-18): > 100 µM (inactive)
GI50 (HOP-62): > 100 µM (inactive)
GI50 (HOP-92): > 100 µM (inactive)
GI50 (HT-29): > 100 µM (inactive)
GI50 (IGROV-1): > 100 µM (inactive)
GI50 (K562): > 100 µM (inactive)
GI50 (KM-20L2): > 100 µM (inactive)
GI50 (KM12): > 100 µM (inactive)
GI50 (LOX IMVI): > 100 µM (inactive)
GI50 (LXFL 529): > 100 µM (inactive)
GI50 (M14): > 100 µM (inactive)
GI50 (M19-MEL): > 100 µM (inactive)
GI50 (MOLT-4): > 100 µM (inactive)
GI50 (Malme-3M): > 100 µM (inactive)
GI50 (NCI-H23): > 100 µM (inactive)
GI50 (NCI-H460): > 100 µM (inactive)
GI50 (OVCAR-3): > 100 µM (inactive)
GI50 (OVCAR-4): > 100 µM (inactive)
GI50 (OVCAR-5): > 100 µM (inactive)
GI50 (OVCAR-8): > 100 µM (inactive)
GI50 (RPMI-8226): > 100 µM (inactive)
GI50 (SF-295): > 100 µM (inactive)
GI50 (SF-539): > 100 µM (inactive)
GI50 (SK-MEL-28): > 100 µM (inactive)
GI50 (SK-MEL-2): > 100 µM (inactive)
GI50 (SK-MEL-5): > 100 µM (inactive)
GI50 (SK-OV-3): > 100 µM (inactive)
GI50 (SNB-75): > 100 µM (inactive)
GI50 (SNB-78): > 100 µM (inactive)
GI50 (SW-620): > 100 µM (inactive)
GI50 (TK-10): > 100 µM (inactive)
GI50 (U-251): > 100 µM (inactive)
GI50 (UACC-257): > 100 µM (inactive)
GI50 (UACC-62): > 100 µM (inactive)
GI50 (XF498): > 100 µM (inactive)
